Reference: PMC10646112, “Mechanistic insights into glycoside 3-oxidases involved in C-glycoside metabolism in soil microorganisms” (Nature Communications, 2023)

Assays:
PsG3Ox [1] = biological target: T1, PsG3Ox (Pseudarthrobacter siccitolerans, UniProt A0A024H8G7); assay: tryptophan fluorescence quenching titration of apo-enzyme; crystal structure; type: biochemical; parameters: gene ARTSIC4J27_4061; Apo-PsG3Ox
PsG3Ox [2] = biological target: T1, PsG3Ox; assay: inhibition of D-Glc oxidation, steady-state kinetics (Lineweaver-Burk, secondary plot of slopes); type: biochemical; parameters: gene ARTSIC4J27_4061

T1 sequence (A0A024H8G7 1-519): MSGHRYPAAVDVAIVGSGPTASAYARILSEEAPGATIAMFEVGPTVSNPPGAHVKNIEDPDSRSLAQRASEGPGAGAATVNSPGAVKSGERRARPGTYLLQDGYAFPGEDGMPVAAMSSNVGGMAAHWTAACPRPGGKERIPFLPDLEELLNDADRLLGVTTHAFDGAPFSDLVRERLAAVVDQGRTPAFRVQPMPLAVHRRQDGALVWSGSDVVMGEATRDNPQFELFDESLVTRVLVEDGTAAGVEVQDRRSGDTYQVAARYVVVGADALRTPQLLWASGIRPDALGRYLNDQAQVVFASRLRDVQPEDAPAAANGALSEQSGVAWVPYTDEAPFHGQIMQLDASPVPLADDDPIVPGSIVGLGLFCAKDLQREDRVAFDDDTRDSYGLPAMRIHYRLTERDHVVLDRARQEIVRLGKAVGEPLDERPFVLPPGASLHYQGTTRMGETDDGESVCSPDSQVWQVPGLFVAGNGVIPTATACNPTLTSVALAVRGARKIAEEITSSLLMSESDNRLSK

| Structure (SMILES) | Kd (PsG3Ox [1]) | Ki (PsG3Ox [2]) |
| --- | --- | --- |
| Cc1cc2nc3c(=O)[nH]c(=O)nc-3n(C[C@H](O)[C@H](O)[C@H](O)COP(=O)(O)OP(=O)(O)OC[C@H]3O[C@@H](n4cnc5c(N)ncnc54)[C@H](O)[C@@H]3O)c2cc1C [FAD] | 0.2 µM |  |
| C[C@@H]1O[C@@H](OC[C@H]2O[C@@H](Oc3c(-c4ccc(O)c(O)c4)oc4cc(O)cc(O)c4c3=O)[C@H](O)[C@@H](O)[C@@H]2O)[C@H](O)[C@H](O)[C@H]1O [rutin] |  | 100 µM |
